Measured values from patent publication US12102633B2, “Spirolactone compounds” (Quixgen, Inc., priority 2017, dated 2024).

Experiments:
[1] = test system: T1, Mouse ACC (ACC protein purified from liver); experiment: Mouse ACC enzymatic activity assay; format: biochemical; conditions: read-out: EA-CoA mACC IC50
T1 construct: ACC protein was purified by taking advantage of the biotinylation in the carboxylase domain
Outline: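 ACC affinity-purified from livers of male C57BL/6J mice (biotin-based capture), pre-incubated 10 min at 37 °C with compound. Reaction with 0.5 mM acetyl-CoA, 4.0 mM ATP, 15 mM 13C-NaHCO3, 0.5 mM citrate, pH 7.5, 1 h at 37 °C; malonyl-13C-CoA quantified by LC-MS/MS as pmoles/mg protein per minute.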

3T3-L1 adipocytes = experiment: Lipogenesis of 3T3-L1 adipocytes; format: cell-based; conditions: Mus musculus, TG readout, read-out: LG-3T3 IC50
Protocol: 3T3-L1 fibroblast cells (Zen-Bio) were grown in 96-well culture microplate (Corning) with growth media to around 90-100% confluency. Culture media was changed to differentiation media (growth media supplemented with 3-Isobutyl-1-Methylxanthine 500 μM, Dexamethasone 1 μM, insulin 10 μg/mL, and rosiglitazone 2 μM) plus serially diluted compounds prepared in DMSO (1:1000 dilution). After incubation for 2 days, media was changed to maintenance media (growth media supplemented with insulin 10 μg/mL) plus serially diluted compounds prepared in DMSO (1:1000 dilution) for around 1 week with media changed every 2 days. Upon completion of the treatment, culture media are discarded and 200 μL 0.01% SDS was added to each well and shaken for 1 hour to lyse the cells. Cell lysates were then transferred to 400 μL Folch's solution (chloroform: methanol=2:1) and mixed well. After centrifuge at 2,000 rpm for 20 min, 200 μL of the lower organic phase was transferred to a plate with 10 μL sample buffer (chloroform:Triton-100=3:1). Samples were blown dried under nitrogen and 200 μL triglyceride (TG) quantification reagent (Thermo Fisher Scientific) was added, mixed, and incubated at 37° C. for 30 min. TG concentration was determined by reading absorbance at 535 nm (Dynex MRX^e Magellan Biosciences) and calculated from standard curve.

Human sebocytes = experiment: Proliferation of human sebocytes; format: cell-based; conditions: 24 hours, MTT, read-out: AP-Sebo IC50
Protocol: Human sebocytes (Celprogen) and keratinocytes (ATCC) were grown in 96-well culture microplate (Coming) with growth media to around 50% confluency. Media was changed to growth media mixed with serially diluted compounds in DMSO (1:1000 dilution). After treatment for 24 hours, media was changed to 100 μL phenol red free DMEM and cell numbers were quantitated by using Vybrant® MTT Cell Proliferation Assay Kit (Molecular Probes). Ten μL of 12 mM MTT stock solution was added to each well and the microplate was incubated at 37° C. for 4 hours. Then 100 μL of the SDS-HCl solution was added to each well and mixed thoroughly using a pipette. The microplate was incubated at 37° C. for 4 hours in a cell culture incubator. The microplate was mixed again using a pipette and absorbance was read at 570 nm (Dynex MRX^e Magellan Biosciences). Effect of compounds on proliferation of human keratinocytes was calculated by % of DMSO vehicle control.

COc1cc(C(=O)N2CCC3(CC2)Cc2ccc(C(C)C)cc2C(=O)O3)nc2c(OC)cccc12 [Example 2, 1′-(4,8-dimethoxyquinoline-2-carbonyl)-7-isopropylspiro[isochroman-3,4′-piperidin]-1-one]
IC50 [1]: 2.4 nM | IC50 (3T3-L1 adipocytes): 0.8 nM | IC50 (Human sebocytes): 57.1 nM

COc1cc(C(=O)N2CCC3(CC2)Cc2ccc(Nc4ccnn4C)cc2C(=O)O3)nc2c(OC)cccc12 [Example 6, 1′-(4,8-dimethoxyquinoline-2-carbonyl)-7-((1-methyl-1H-pyrazol-5-yl)amino)spiro[isochroman-3,4′-piperidin]-1-one]
IC50 [1]: 0.34 nM | IC50 (3T3-L1 adipocytes): 21.9 nM | IC50 (Human sebocytes): 2.5 nM
